The source made the active and inactive calls. No cut-off for these calls is given here.
How the values were obtained:
[1] = tested on: Osimertinib-resistant NCI-H1975 cell; experiment: Induction of apoptosis in human Osimertinib-resistant NCI-H1975 cell (AZDR) assessed as early apoptotic cells at 0.1 uM incubated for 24 hrs by Annexin V and propidium iodide staining based flow cytometry analysis (reference value: 3.38%); type: functional
[2] = Toxicity in BALB/c nude mouse assessed as effect on heart at 20 to 60 mg/kg, ip measured after 22 days by H and E staining based analysis; type: organism-based; details: in vivo, 528 h, dose 20-60 mg/kg, time 22 day
[3] = tested on: Osimertinib-resistant NCI-H1975 cell; experiment: Anticancer activity against human Osimertinib-resistant NCI-H1975 cell (AZDR) xenografted in BALB/c nude mouse model assessed as reduction in tumor weight administered as ip dose and measured upto 22 days; type: functional, organism-based; details: dose 20-60 mg/kg, time <= 22.0 day
[4] = tested on: Osimertinib-resistant NCI-H1975 cell; experiment: Induction of apoptosis in human Osimertinib-resistant NCI-H1975 cell (AZDR) assessed as caspase3/7 activation using caspase-glo 3/7 as substrate incubated for 24 hrs by luminescence based analysis; type: functional; details: dose 0.1-10 µM
[5] = biological target: T1, Tyrosine-protein kinase ITK/TSK (Homo sapiens) (UniProt Q08881); experiment: Inhibition of human ITK at 1 uM relative to control
T1 sequence (whole entry): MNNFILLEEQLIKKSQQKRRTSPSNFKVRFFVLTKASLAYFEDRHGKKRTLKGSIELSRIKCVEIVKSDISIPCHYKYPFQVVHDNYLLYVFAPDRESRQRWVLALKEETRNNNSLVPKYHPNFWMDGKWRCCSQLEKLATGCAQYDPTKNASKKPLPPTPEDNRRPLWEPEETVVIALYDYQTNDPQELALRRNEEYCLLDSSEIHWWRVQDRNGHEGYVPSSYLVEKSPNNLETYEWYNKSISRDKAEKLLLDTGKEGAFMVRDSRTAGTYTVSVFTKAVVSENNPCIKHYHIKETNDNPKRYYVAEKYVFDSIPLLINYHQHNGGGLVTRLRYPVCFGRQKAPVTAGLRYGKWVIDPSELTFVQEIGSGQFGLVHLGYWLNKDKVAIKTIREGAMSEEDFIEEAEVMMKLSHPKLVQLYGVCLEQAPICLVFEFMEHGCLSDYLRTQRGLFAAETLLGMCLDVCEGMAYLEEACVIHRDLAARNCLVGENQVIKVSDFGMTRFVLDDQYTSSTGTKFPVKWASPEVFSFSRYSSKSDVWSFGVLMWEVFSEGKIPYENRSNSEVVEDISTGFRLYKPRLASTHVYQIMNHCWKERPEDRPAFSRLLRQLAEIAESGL

MCF7 = experiment: Antiproliferative activity against human MCF7 cells incubated for 72 hrs by MTT assay; type: functional, cell-based; details: MCF7, 72 h
[6] = biological target: T2, Serine/threonine-protein kinase AKT (Homo sapiens) (UniProt P31751+Q9Y243+P31749); experiment: Inhibition of AKT phosphorylation in human Osimertinib-resistant NCI-H1975 cell (AZDR) at 0.1 to 10 uM incubated for 24 hrs by Western blot analysis; type: cell-based; details: dose 0.1-10 µM
T2 sequence (P31749 whole entry, looked up): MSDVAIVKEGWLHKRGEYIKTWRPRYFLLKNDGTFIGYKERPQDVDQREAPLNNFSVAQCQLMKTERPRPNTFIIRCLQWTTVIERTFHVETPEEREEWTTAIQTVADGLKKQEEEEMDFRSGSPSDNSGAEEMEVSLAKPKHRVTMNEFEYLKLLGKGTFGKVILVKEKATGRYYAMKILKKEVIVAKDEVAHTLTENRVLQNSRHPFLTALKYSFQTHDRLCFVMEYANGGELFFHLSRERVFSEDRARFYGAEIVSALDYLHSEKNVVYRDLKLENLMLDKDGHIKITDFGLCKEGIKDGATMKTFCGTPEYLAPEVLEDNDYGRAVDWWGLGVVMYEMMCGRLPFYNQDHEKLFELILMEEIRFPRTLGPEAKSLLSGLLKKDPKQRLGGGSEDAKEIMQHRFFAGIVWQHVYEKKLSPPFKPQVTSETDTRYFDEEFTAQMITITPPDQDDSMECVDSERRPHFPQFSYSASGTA
T2 sequence (P31751 whole entry, looked up): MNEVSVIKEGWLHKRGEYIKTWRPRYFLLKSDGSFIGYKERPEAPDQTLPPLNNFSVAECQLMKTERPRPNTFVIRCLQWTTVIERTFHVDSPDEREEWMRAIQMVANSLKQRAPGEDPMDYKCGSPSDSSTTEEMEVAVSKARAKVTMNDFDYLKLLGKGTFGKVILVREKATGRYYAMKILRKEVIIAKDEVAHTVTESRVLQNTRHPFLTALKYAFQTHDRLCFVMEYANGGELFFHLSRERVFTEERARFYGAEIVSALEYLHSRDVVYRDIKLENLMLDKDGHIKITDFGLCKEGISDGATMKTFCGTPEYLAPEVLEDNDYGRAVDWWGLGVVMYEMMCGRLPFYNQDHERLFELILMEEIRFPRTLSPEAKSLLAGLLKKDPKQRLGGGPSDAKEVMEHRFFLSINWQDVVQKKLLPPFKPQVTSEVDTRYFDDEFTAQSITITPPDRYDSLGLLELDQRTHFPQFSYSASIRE
T2 sequence (Q9Y243 whole entry, looked up): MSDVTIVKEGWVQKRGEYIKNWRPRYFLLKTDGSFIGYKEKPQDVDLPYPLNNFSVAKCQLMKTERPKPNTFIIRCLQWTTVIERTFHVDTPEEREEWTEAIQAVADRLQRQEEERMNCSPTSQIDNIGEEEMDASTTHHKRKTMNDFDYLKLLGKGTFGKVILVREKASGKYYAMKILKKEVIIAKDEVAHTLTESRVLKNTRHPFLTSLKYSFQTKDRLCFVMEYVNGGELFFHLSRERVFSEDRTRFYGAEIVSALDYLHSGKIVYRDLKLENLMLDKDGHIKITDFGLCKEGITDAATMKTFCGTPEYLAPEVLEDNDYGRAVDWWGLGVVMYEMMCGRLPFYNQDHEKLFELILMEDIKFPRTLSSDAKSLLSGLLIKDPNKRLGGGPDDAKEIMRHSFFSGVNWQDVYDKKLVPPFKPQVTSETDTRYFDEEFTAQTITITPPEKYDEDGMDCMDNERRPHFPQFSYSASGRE

[7] = biological target: T2, Serine/threonine-protein kinase AKT (Homo sapiens); experiment: Inhibition of AKT phosphorylation in human NCI-H1975 cells incubated for 24 hrs by Western blot analysis; type: cell-based; details: dose 0.1-10 µM
[8] = tested on: Osimertinib-resistant NCI-H1975 cell; experiment: Induction of apoptosis in human Osimertinib-resistant NCI-H1975 cell (AZDR) assessed as late apoptotic cells at 1 uM incubated for 24 hrs by Annexin V and propidium iodide staining based flow cytometry analysis (reference value: 1.06%); type: functional
[9] = Toxicity in BALB/c nude mouse assessed as effect on spleen at 20 to 60 mg/kg, ip measured after 22 days by H and E staining based analysis; type: organism-based; details: in vivo, 528 h, dose 20-60 mg/kg, time 22 day
[10] = Toxicity in BALB/c nude mouse assessed as effect on lung at 20 to 60 mg/kg, ip measured after 22 days by H and E staining based analysis; type: organism-based; details: in vivo, 528 h, dose 20-60 mg/kg, time 22 day
NCI-H1975 = experiment: Antiproliferative activity against human NCI-H1975 cells incubated for 72 hrs by MTT assay; type: functional, cell-based; details: NCI-H1975, 72 h
[11] = tested on: Osimertinib-resistant NCI-H1975 cell; experiment: Induction of apoptosis in human Osimertinib-resistant NCI-H1975 cell (AZDR) assessed as caspase3/7 activation using caspase-glo 3/7 as substrate at 0.1 to 10 uM by luminescence based analysis; type: functional; details: dose 0.1-10 µM, time 24-72 hrs, TDE = time-dependent effect
[12] = tested on: Osimertinib-resistant NCI-H1975 cell; experiment: Anticancer activity against human Osimertinib-resistant NCI-H1975 cell (AZDR) xenografted in BALB/c nude mouse model assessed as inhibition of tumor growth administered as ip dose and measured upto 22 days; type: functional, organism-based; details: dose 20-60 mg/kg, time <= 22.0 day
[13] = tested on: Osimertinib-resistant NCI-H1975 cell; experiment: Antiproliferative activity against human Osimertinib-resistant NCI-H1975 cell (AZDR) incubated for 72 hrs by MTT assay; type: functional, cell-based
[14] = Toxicity in BALB/c nude mouse assessed as effect on body weight at 20 to 60 mg/kg, ip measured upto 22 days; type: organism-based; details: in vivo, 528 h, dose 20-60 mg/kg, time < 22 day
[15] = Toxicity in BALB/c nude mouse assessed as effect on liver at 20 to 60 mg/kg, ip measured after 22 days by H and E staining based analysis; type: organism-based; details: in vivo, 528 h, dose 20-60 mg/kg, time 22 day
[16] = tested on: Osimertinib-resistant NCI-H1975 cell; experiment: Anticancer activity against human Osimertinib-resistant NCI-H1975 cell (AZDR) xenografted in BALB/c nude mouse model assessed as increase in tumor cell apoptosis administered as ip dose by TUNEL assay; type: functional, organism-based; details: dose 20-60 mg/kg
[17] = tested on: Osimertinib-resistant NCI-H1975 cell; experiment: Induction of apoptosis in human Osimertinib-resistant NCI-H1975 cell (AZDR) assessed as late apoptotic cells at 0.1 uM incubated for 24 hrs by Annexin V and propidium iodide staining based flow cytometry analysis (reference value: 1.06%); type: functional
[18] = tested on: Osimertinib-resistant NCI-H1975 cell; experiment: Induction of apoptosis in human Osimertinib-resistant NCI-H1975 cell (AZDR) assessed as early apoptotic cells at 10 uM incubated for 24 hrs by Annexin V and propidium iodide staining based flow cytometry analysis (reference value: 3.38%); type: functional
[19] = tested on: Osimertinib-resistant NCI-H1975 cell; experiment: Induction of apoptosis in human Osimertinib-resistant NCI-H1975 cell (AZDR) assessed as late apoptotic cells at 10 uM incubated for 24 hrs by Annexin V and propidium iodide staining based flow cytometry analysis (reference value: 1.06%); type: functional
[20] = tested on: Osimertinib-resistant NCI-H1975 cell; experiment: Induction of apoptosis in human Osimertinib-resistant NCI-H1975 cell (AZDR) assessed as increase in number of apoptotic cells measured after 24 hrs by Hoechst 33258 staining based analysis; type: functional; details: dose 0.1-10 µM
[21] = tested on: Osimertinib-resistant NCI-H1975 cell; experiment: Inhibition of cell migration in human Osimertinib-resistant NCI-H1975 cell (AZDR) measured after 24 hrs by wound healing assay; type: functional, cell-based; details: dose 0.1-10 µM
[22] = tested on: Osimertinib-resistant NCI-H1975 cell; experiment: Inhibition of colony formation in human Osimertinib-resistant NCI-H1975 cell (AZDR) measured after 14 days by crystal violet staining based analysis; type: functional; details: dose 0.1-10 µM, time 14.0 day
[23] = Stability of the compound assessed as half life in presence of glutathione at pH 7.4; type: physicochemical; details: solution containing glutathione
Mus musculus = experiment: In vivo inhibition of EGFR L858R/T790M mutant in BALB/c nude mouse xenografted with human Osimertinib-resistant NCI-H1975 cell (AZDR) assessed as downregulation of AKT phosphorylation at 60 mg/kg, ip measured after 22 days; type: functional, organism-based; details: time 22.0 day
[24] = Toxicity in BALB/c nude mouse assessed as effect on kidney at 20 to 60 mg/kg, ip measured after 22 days by H and E staining based analysis; type: organism-based; details: in vivo, 528 h, dose 20-60 mg/kg, time 22 day
[25] = tested on: Osimertinib-resistant NCI-H1975 cell; experiment: Induction of apoptosis in human Osimertinib-resistant NCI-H1975 cell (AZDR) assessed as early apoptotic cells at 1 uM incubated for 24 hrs by Annexin V and propidium iodide staining based flow cytometry analysis (reference value: 3.38%); type: functional

Q: What does the source list for `C=CC(=O)Nc1cccc(Nc2nc(Nc3cnn(CC)c3)nc3ccc(Cl)cc23)c1`?
A: Activity [1]: 10.7%; Activity [2]: Non-Toxic; Activity [3]: Dose-Dependent Effect; Activity [4]: Dose-Dependent Effect; inhibition [5]: 81%; IC50 (MCF7): 1270 nM; inhibition [6]: Active; inhibition [7]: Dose-Dependent Effect; Activity [8]: 16.1%; Activity [9]: Non-Toxic; Activity [10]: Non-Toxic; IC50 (NCI-H1975): 1040 nM; Activity [11]: Tde; Activity [12]: Dose-Dependent Effect; IC50 [13]: 670 nM; Activity [14]: Non-Toxic; Activity [15]: Non-Toxic; Activity [16]: Dose-Dependent Effect; Activity [17]: 9.97%; Activity [18]: 48.6%; Activity [19]: 30.7%; Activity [20]: Dose-Dependent Effect; inhibition [21]: Active; inhibition [22]: Dose-Dependent Effect; half-life [23]: 13.8 h; inhibition (Mus musculus): Active; Activity [24]: Non-Toxic; Activity [25]: 17.1%
